Measurements published in patent US20160120825A1 (TIANJIN TAIPU PHARMACEUTICAL SCIENCE & TECHNOLOGY …, priority 2013, published 2016).
Like-named read-outs stand apart in the source and are kept apart here.

How the values were obtained:
[1] = tested on: brain nerve cells (hippocampal ventral dentate gyrus); conditions: adult rat, cited from earlier work
[2] = solubility of crystalline X-form agomelatine in solvents; format: physicochemical
[3] = change of crystalline X-form raw material in pulverization, grinding, tabletting detected by DSC; format: physicochemical
Excerpt: Change of the crystalline X-form raw material in pulverization, grinding, and tabletting (at a pressure of 10 kg) was detected by DSC (see FIGS. 1-4).

[4] = stability in the process (DSC crystal form purity, HPLC relevant substances); format: physicochemical; conditions: during formulation process
Excerpt: (§1) Referring to the aforementioned test 6, tablets were manufactured according to formulation and process with hydroxyproplyl methyl cellulose and polyvinylpyrrolindone k30 in a concentration of 15% as a protective agent.
Crystal form purity of the tablets was detected using DSC method with crystal forms and relevant substances as evaluation indexes. Regarding detection of relevant substances, HPLC method was adopted using imported drug as a standard.

[5] = test on influencing factors; format: physicochemical
Description: as §1
We investigated in combination with formulations of the present invention: the samples were allowed to stand in an open state for 30 days under the conditions of a high temperature of 60° C., a high humidity of RH 92%, and both high temperature and high humidity (40° C., RH75%), respectively. The results are as follows: Test results on influencing factors (%)

Row | Compound | cell proliferation and neuronal regeneration in hippocampal ventral dentate gyrus ([1]; acute or subacute administration (4 hours or nine weeks)) | cell proliferation and neuronal regeneration in hippocampal ventral dentate gyrus ([1]; long-term (three weeks) administration) | solubility ([2]; in methanol, ethanol, acetonitrile, DMSO, etc.) | solubility ([2]; in water) | X-form crystal purity (%) detected by DSC ([3]; after grinding) [%] | X-form crystal purity (%) detected by DSC ([3]; after pulverization) [%] | X-form crystal purity (%) detected by DSC ([3]; after tabletting (pressure of 10 kg)) [%] | X-form crystal purity (%) detected by DSC ([3]; untreated crystalline X-form) [%] | Crystal form purity ([4]; DSC) | Relevant substances ([4]; HPLC) [%] | Crystal form purity % ([5]; 0 day) [%] | Crystal form purity % ([5]; 10 days at a high humidity (RH 92%), open state) [%] | Crystal form purity % ([5]; 10 days at a high temperature (60° C.), open state) [%] | Crystal form purity % ([5]; 10 days at both high temperature and high humidity (40° C., RH75%), open state) [%]
1 | COc1ccc2cccc(CCNC(C)=O)c2c1 [Agomelatine, agomelatine] | no similar situation occurred | could increase cell proliferation and neuronal regeneration | – | – | – | – | – | – | – | – | – | – | – | –
2 | COc1ccc2cccc(CCNC(C)=O)c2c1 [agomelatine] | – | – | very soluble | almost insoluble | 75.1 | 79.4 | 57.7 | 100 | 100 | 0.42 | 100 | 85 | 68 | 57
